Toxic doses and inconclusive results are not listed. Cut-off read from the data, not from the text of the source: active = T/C of 150% or more; inactive = T/C below 125%.
System: L1210 leukemia ip in BDF1 mice, survival T/C
Test: NCI In Vivo Anticancer Drug Screen. Data for tumor model L1210 Leukemia (intraperitoneal) in B6D2F1 (BDF1) mice
Settings: endpoint: mean survival time, higher = longer survival
How it was run: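 Transplantable tumor model; survival measured in treated vs vehicle control mice. Value = treated/control.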

[1] = dose: 200.0 mg/kg/injection, schedule: Q01DX009 (ip), vehicle: Klucel (hydroxypropylcellulose) (HPC)
[2] = dose: 100.0 mg/kg/injection, schedule: Q01DX009 (ip), vehicle: saline
[3] = dose: 100.0 mg/kg/injection, schedule: Q04DX003 (ip), vehicle: saline
[4] = dose: 200.0 mg/kg/injection, schedule: Q01DX009 (ip), vehicle: saline
[5] = dose: 200.0 mg/kg/injection, schedule: Q04DX003 (ip), vehicle: saline
[6] = dose: 400.0 mg/kg/injection, schedule: Q01DX009 (ip), vehicle: saline
[7] = dose: 400.0 mg/kg/injection, schedule: Q04DX003 (ip), vehicle: saline
[8] = dose: 100.0 mg/kg/injection, schedule: Q01DX009 (ip), vehicle: Klucel (hydroxypropylcellulose) (HPC)
[9] = dose: 400.0 mg/kg/injection, schedule: Q01DX009 (ip), vehicle: Klucel (hydroxypropylcellulose) (HPC)
[10] = dose: 100.0 mg/kg/injection, schedule: Q01DX001 (ip), vehicle: saline
[11] = dose: 200.0 mg/kg/injection, schedule: Q01DX001 (ip), vehicle: saline
[12] = dose: 400.0 mg/kg/injection, schedule: Q01DX001 (ip), vehicle: saline
[13] = dose: 100.0 mg/kg/injection, schedule: Q01DX001 (ip), vehicle: Klucel (hydroxypropylcellulose) (HPC)
[14] = dose: 100.0 mg/kg/injection, schedule: Q04DX003 (ip), vehicle: Klucel (hydroxypropylcellulose) (HPC)
[15] = dose: 200.0 mg/kg/injection, schedule: Q01DX001 (ip), vehicle: Klucel (hydroxypropylcellulose) (HPC)
[16] = dose: 200.0 mg/kg/injection, schedule: Q04DX003 (ip), vehicle: Klucel (hydroxypropylcellulose) (HPC)
[17] = dose: 400.0 mg/kg/injection, schedule: Q01DX001 (ip), vehicle: Klucel (hydroxypropylcellulose) (HPC)
[18] = dose: 400.0 mg/kg/injection, schedule: Q04DX003 (ip), vehicle: Klucel (hydroxypropylcellulose) (HPC)
[19] = dose: 25.0 mg/kg/injection, schedule: Q01DX009 (ip), vehicle: water
[20] = dose: 50.0 mg/kg/injection, schedule: Q01DX009 (ip), vehicle: water
[21] = dose: 100.0 mg/kg/injection, schedule: Q01DX009 (ip), vehicle: water

Measured: T/C

CC(/C=N/N=C(N)N)=N\NC(N)=S
inactive: dose: 15.0 mg/kg/injection, schedule: Q01DX Z (ip), vehicle: carboxymethylcellulose (CMC) 98 % of control | dose: 30.0 mg/kg/injection, schedule: Q01DX Z (ip), vehicle: carboxymethylcellulose (CMC) 101 % of control | dose: 30.0 mg/kg/injection, schedule: Q01DX Z (oral), vehicle: carboxymethylcellulose (CMC) 103 % of control | dose: 60.0 mg/kg/injection, schedule: Q01DX Z (ip), vehicle: carboxymethylcellulose (CMC) 111 % of control | dose: 60.0 mg/kg/injection, schedule: Q01DX Z (oral), vehicle: carboxymethylcellulose (CMC) 103 % of control | dose: 120.0 mg/kg/injection, schedule: Q01DX Z (ip), vehicle: carboxymethylcellulose (CMC) 114 % of control | dose: 120.0 mg/kg/injection, schedule: Q01DX Z (oral), vehicle: carboxymethylcellulose (CMC) 106 % of control | dose: 240.0 mg/kg/injection, schedule: Q01DX Z (oral), vehicle: carboxymethylcellulose (CMC) 105 % of control

Cc1cc(NC(=O)Nc2ccc(Cl)cc2)no1
inactive: dose: 100.0 mg/kg/injection, schedule: Q04DX003 (ip), vehicle: saline sonified 95 % of control | dose: 200.0 mg/kg/injection, schedule: Q04DX003 (ip), vehicle: saline sonified 87 % of control | dose: 400.0 mg/kg/injection, schedule: Q04DX003 (ip), vehicle: saline sonified 87 % of control

COc1cc2c(c(OC)c1OC)-c1ccc(SC)c(=O)cc1C(N(C)C)CC2 (centres undefined)
inactive: [1] 93 % of control

CCC[CH2][Pb]([CH2]CCC)([CH2]CCC)[CH2]CCC
inactive: dose: 100.0 mg/kg/injection, schedule: Q04DX002 (ip), vehicle: saline with Tween-80 107 % of control | dose: 200.0 mg/kg/injection, schedule: Q04DX002 (ip), vehicle: saline with Tween-80 105 % of control | dose: 400.0 mg/kg/injection, schedule: Q04DX002 (ip), vehicle: saline with Tween-80 102 % of control

NC(CSS(=O)(=O)O)=NCCCOCc1ccccc1
inactive: dose: 12.5 mg/kg/injection, schedule: Q04DX002 (ip), vehicle: Klucel (hydroxypropylcellulose) (HPC) 103 % of control | dose: 25.0 mg/kg/injection, schedule: Q04DX002 (ip), vehicle: Klucel (hydroxypropylcellulose) (HPC) 93 % of control

NCCN1CCN=C1C1=NCCN1CCN
inactive: [2] 98 % of control | [3] 100 % of control | [4] 93 % of control | [5] 98 % of control | [6] 98 % of control | [7] 96 % of control

Cc1ccc(-c2nc(-c3nccc4ccccc34)oc2-c2ccccc2)cc1
inactive: [8] 103 % of control | [1] 95 % of control | [9] 95 % of control

COC(=O)CS(=O)(=O)C/C(=N\Nc1ccccc1)c1ccccc1
inactive: dose: 75.0 mg/kg/injection, schedule: Q01DX001 (ip), vehicle: saline 104 % of control | dose: 150.0 mg/kg/injection, schedule: Q01DX001 (ip), vehicle: saline 92 % of control | dose: 300.0 mg/kg/injection, schedule: Q01DX001 (ip), vehicle: saline 98 % of control

CCCCNC=O
inactive: [2] 101 % of control | [3] 102 % of control | [4] 106 % of control | [5] 93 % of control | [6] 108 % of control | [7] 111 % of control

CCN(c1ccccc1)C1CCCCC1=O (centres undefined)
inactive: [10] 101 % of control | [11] 106 % of control | [12] 104 % of control

CCS(=O)(=O)CC
inactive: [2] 101 % of control | [3] 100 % of control | [4] 106 % of control | [5] 107 % of control | [6] 97 % of control | [7] 95 % of control

CN=NC(OC(C)=O)(c1ccccc1)c1ccccc1
inactive: [13] 101 % of control | [8] 100 % of control | [14] 108 % of control | [15] 95 % of control | [1] 97 % of control | [16] 103 % of control | [17] 94 % of control | [9] 105 % of control | [18] 101 % of control

FC(Cl)(Cl)c1nc2nc(Cl)c(Cl)nc2[nH]1
inactive: [19] 95 % of control | [20] 94 % of control | [21] 97 % of control

OCCN(CCO)c1cc(OCc2ccccc2)cc(OCc2ccccc2)c1
inactive: [19] 94 % of control | [20] 97 % of control | [21] 101 % of control | dose: 200.0 mg/kg/injection, schedule: Q01DX009 (ip), vehicle: water 86 % of control | dose: 400.0 mg/kg/injection, schedule: Q01DX009 (ip), vehicle: water 95 % of control

CC(C)C1=CC(=O)OC1C(O)C(C)C1CCC2C3CC=C4CC(O)CCC4(C)C3CCC12C (centres undefined)
inactive: [14] 102 % of control | [16] 96 % of control | [18] 94 % of control

O=S(=O)(O)c1cc(O)c2ccccc2c1
inactive: [2] 90 % of control | [3] 109 % of control | [4] 90 % of control | [5] 109 % of control | [6] 95 % of control | [7] 109 % of control

NC1=NCN(c2ccc(OCCOc3ccc([N+](=O)[O-])cc3)cc2)C(N)=N1
inactive: [13] 107 % of control | [15] 102 % of control | [17] 97 % of control

O=C(c1ccccc1)C1CCCS1(=O)=O (centres undefined)
inactive: [14] 100 % of control | [1] 98 % of control | [16] 96 % of control | [9] 97 % of control | [18] 100 % of control

COCc1c(C)[nH]c2ccc(N(C)C)cc2c1=O
inactive: dose: 100.0 mg/kg/injection, schedule: Q01DX009 (ip), vehicle: saline with Tween-80 97 % of control | dose: 200.0 mg/kg/injection, schedule: Q01DX009 (ip), vehicle: saline with Tween-80 103 % of control | dose: 400.0 mg/kg/injection, schedule: Q01DX009 (ip), vehicle: saline with Tween-80 105 % of control

CC(/C=N/Nc1nnc(N/N=C/C(C)=C/c2ccccc2)c2ccccc12)=C\c1ccccc1
inactive: dose: 50.0 mg/kg/injection, schedule: Q01DX001 (ip), vehicle: carboxymethylcellulose (CMC) 94 % of control | dose: 100.0 mg/kg/injection, schedule: Q01DX001 (ip), vehicle: carboxymethylcellulose (CMC) 102 % of control | dose: 200.0 mg/kg/injection, schedule: Q01DX001 (ip), vehicle: carboxymethylcellulose (CMC) 96 % of control | dose: 400.0 mg/kg/injection, schedule: Q01DX001 (ip), vehicle: carboxymethylcellulose (CMC) 112 % of control

CC(C)c1cc(C(C)C)c(S(=O)(=O)C2CC2c2ccccc2)c(C(C)C)c1 (centres undefined)
inactive: [10] 112 % of control | [11] 93 % of control | [12] 91 % of control

N#CSCCN1C(=O)C2C3CCC(O3)C2C1=O (centres undefined)
inactive: dose: 6.25 mg/kg/injection, schedule: Q04DX002 (ip), vehicle: saline with Tween-80 94 % of control | dose: 12.5 mg/kg/injection, schedule: Q04DX002 (ip), vehicle: saline with Tween-80 97 % of control

C=Cc1nc2ccccc2[nH]1 (tested in a mixture with another compound)
inactive: dose: 5.0 mg/kg/injection, schedule: Q01DX001 (ip), vehicle: saline 95 % of control | dose: 10.0 mg/kg/injection, schedule: Q01DX001 (ip), vehicle: saline 96 % of control | dose: 20.0 mg/kg/injection, schedule: Q01DX001 (ip), vehicle: saline 96 % of control | dose: 80.0 mg/kg/injection, schedule: Q01DX001 (ip), vehicle: saline 102 % of control

O=[N+]([O-])c1cccc(OCCCCOc2ccc(S(=O)(=O)F)cc2)c1
inactive: dose: 50.0 mg/kg/injection, schedule: Q01DX001 (ip), vehicle: Klucel (hydroxypropylcellulose) (HPC) 92 % of control | [13] 94 % of control | [15] 90 % of control

CC(C)(C)N1C(C(=O)c2ccccc2)C1C(=O)c1ccccc1 (centres undefined)
inactive: [13] 97 % of control | [15] 95 % of control | [17] 89 % of control

NC(N)=N/N=C/NN/C=N/N=C(N)N
inactive: dose: 15.0 mg/kg/injection, schedule: Q01DX Z (ip), vehicle: saline 93 % of control | dose: 30.0 mg/kg/injection, schedule: Q01DX Z (ip), vehicle: saline 104 % of control | dose: 60.0 mg/kg/injection, schedule: Q01DX Z (ip), vehicle: saline 115 % of control | dose: 120.0 mg/kg/injection, schedule: Q01DX Z (oral), vehicle: saline 95 % of control

Source: PubChem BioAssay AID248 (DTP/NCI, 2004)
